Measured values: patent US8802597B2, “Herbicidal pyrimidines” (E I du Pont de Nemours and Company, priority 2003, dated 2014)

How the values were obtained:
[1] = test system: late watergrass (Echinochloa oryzicola); assay: Test E flooded paddy water application; type: in vivo; settings: Flood, 21 days, scale 0 to 100 (0 no effect, 100 complete control)
Method in brief: (§1)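 Greenhouse pots of Tama silt loam with weeds and rice at 2.0–2.5-leaf stage, flooded to 3 cm; compounds applied directly into paddy water, depth maintained. Visual rating versus untreated controls after 21 days, 0 (no effect) to 100 (complete control); 29.5/26.7 °C, 16-h photoperiod.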

[2] = test system: smallflower umbrella sedge (Cyperus difformis); assay: Test E flooded paddy water application; type: in vivo; settings: Flood, 21 days, scale 0 to 100 (0 no effect, 100 complete control)
Method in brief: as §1

SMILES	Watergrass, Late plant response rating ([1]; 32 g ai/ha)	Watergrass, Late plant response rating ([1]; 64 g ai/ha)	Watergrass, Late plant response rating ([1]; 125 g ai/ha)	Watergrass, Late plant response rating ([1]; 250 g ai/ha)	Plant response rating, Watergrass, Late ([1]; 16 g ai/ha)	Sedge, Umbrella plant response rating ([2]; 32 g ai/ha)	Sedge, Umbrella plant response rating ([2]; 125 g ai/ha)	Sedge, Umbrella plant response rating ([2]; 250 g ai/ha)	Plant response rating, Sedge, Umbrella ([2]; 16 g ai/ha)	Sedge, Umbrella plant response rating ([2]; 64 g ai/ha)	Plant response rating, Watergrass, Late ([1]; 32 g ai/ha)	Plant response rating, Sedge, Umbrella ([2]; 32 g ai/ha)
Nc1nc(-c2ccc(Cl)cc2)nc(C(=O)O)c1Br [Compound 88]	0	0	0	0	0	40	85	95	40			
Cc1ccc(-c2nc(N)c(Cl)c(C(=O)O)n2)cc1 [Compound 91]	0	0	0	0	0	0	100	100	0	30		
Nc1nc(-c2ccc(Cl)cc2)nc(C(=O)[O-])c1Cl.[Na+] [Compound 117]	0	0	0	0	0	85	100	100	60	100		
COC(=O)c1nc(-c2ccc(I)cc2)nc(N)c1Br [Compound 128]	0	0	0	0	0	60	100	100	0	70		
CCOC(=O)c1nc(-c2ccc(I)cc2)nc(N)c1Cl [Compound 133]		0	0	0	0		100	100	0	95	0	0
